The subject of the assay is hyaluronic acid. Kind of assay: Hyaluronic acid secretion (HA ELISA) in keratinocytes. Particulars: HaCaT cells, peptide 1, 10, 50 μM, 24 hours; FIG. 2. Format: cell-based, human. The method, then:
First, HaCaT cells (human keratinocyte cell line) were seeded in a 48-well plate at a cell density of 1×10^5 cell/well, and then the cells were cultured in DMEM medium containing 10% fetal bovine serum (FBS) for 24 hours. The cultured cells were washed once with serum free DMEM medium, and the peptide of the present invention was mixed in 2 mL of the serum free DMEM medium at each of concentrations of 1, 10, and 50 μM, and dispensed into three wells by 500 μL per condition. A positive control (PC) was treated with 100 nM of EGF instead of the above peptide. The cells were cultured in a CO2 incubator at 37° C. for 24 hours.
The medium of the cultured HaCaT cells was centrifuged to settle a suspended matter, and a supernatant was transferred to an e-tube and used to perform HA ELISA (ECHELON biosciences, Cat No.: K-1200, USA).
For orientation: An ELISA detects its analyte on a solid surface through an enzyme-linked reagent.

Here are results for one sequence from patent US20240407993A1, “PEPTIDE HAVING ANTI-AGING ACTIVITY, AND USE THEREOF” (CAREGEN CO., LTD., priority 2021, published 2024).

As for LCACCLHNCNECQ, the “secretion of hyaluronic acid protein” value is recorded as “gradually increased as the concentration of the peptide increased”.
